“Also recorded” adds a separate entry of the source.
Legend:
[1] = test system: Bacillus anthracis; design: species or system baboons (Papio c. cynocephalus); conditions: in vivo
[2] = test system: baboons; conditions: in vivo

Row | Substance | blood cultures (bacterial colony counts) [1] | decreases in fibrinogen (and in platelets) [1] | liver and kidney function (ALT, AST, BUN, creatinine) [1] | peak bDNA load (16S bacterial DNA, plasma qPCR) [1] | peak plasma mtDNA (CytB) level during anthrax bacteremia [1] | plasma bDNA (16S-rDNA) level and fall off over time [1] | plasma mtDNA levels after resolution of bacteremia [1] | respiratory rate (RR) / tachypnea [1] | survival [1] | circulating bDNA after toxin administration [2]
1 | activated protein C [aPC] | no effect; also recorded: no significant difference between groups | not mitigated | markedly spared | no significant effect | approximately 200 ng/mL | essentially identical fall off; also recorded: no effect; also recorded: does not affect | mtDNA levels began falling after 24 hours; also recorded: plasma mtDNA levels decayed; also recorded: reduction in mtDNA | RR remained normal; also recorded: prevents tachypnea; also recorded: RR was unchanged | the animals survived; also recorded: all these animals survived | 
2 | Shiga toxin 1 [ST1] |  |  |  |  |  |  |  |  |  | insignificant levels
